The record followed here is US20220202783A1, “Use Of ADAM9 Inhibitor As Immunomodulator” (China Medical University, priority 2019, published 2022).

SMILES strings stand for the structures.

Data set [1] relates to breast cancer cells (231-brm). In words: cytotoxicity assay in 231-brm cells. More on the design: key to effect of inhibiting tumor cell growth: “+” represents that the compound has the effect of inhibiting tumor cell growth. Format: cell-based.
Data set [2] relates to TC1 subcutaneous lung tumor. In words: co-treatment of ADAM9 inhibitor and checkpoint inhibitor, CD8+ T cells to TReg ratio in tumors. As to conditions: co-treated with anti-PDL1 antibody; vs vehicle, SW1 alone or anti-PDL1 antibody alone. Format: in vivo, mice. As to the method:
To further analyze whether the ADAM9 inhibitor and the checkpoint inhibitor have a synergistic effect, in the experiment, TC1 subcutaneous lung tumor mice were treated alone with the ADAM9 inhibitor (the compound SW1), the checkpoint inhibitor (anti-PDL1 antibody) or co-treated with the ADAM9 inhibitor (the compound SW1) and the checkpoint inhibitor (anti-PDL1 antibody), and the ratio of CD8^+ T cells and regulatory T cells (TReg) in tumors of TC1 subcutaneous lung tumor mice was analyzed. The experiment also included a control group treated with vehicle (DMSO).

For a further data set, the system named is Bm7 lung cancer cells. In words: cytotoxicity assay, FIG. 1B and Table 2 summary. Format: cell-based. As to the method: Please refer to FIG. 1A, FIG. 1B and Table 2, which show the analysis results of the compound of Formula (I) inhibiting ADAM9 activity. In FIG. 1A, Bm7 lung cancer cells were treated with the derivatives of the compound 6X-0310, and then cultured under anchorage-free culture condition. The expressions of ADAM9 and CDCP1 in Bm7 lung cancer cells were detected by Western blot, in which EF1α is an internal control, and mock represents Bm7 lung cancer cells without treatment. […] In the experiment, the compounds of Formula (I) of Example 1 to Example 32 were further performed cytotoxicity assay to measure the IC50 value of the compounds of Formula (I) of the present disclosure in lung cancer cell lines.

Another data set concerns lung cancer cells (TC1). In words: cytotoxicity assay in TC1 cells. Format: cell-based. More on the design: key to effect of inhibiting tumor cell growth: “+” represents that the compound has the effect of inhibiting tumor cell growth. As to conditions: for IC50: TC-1. The method, boiled down:
(§1)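 IC50 values come from a cytotoxicity assay in which cells were exposed to Formula (I) derivatives.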

The subject of another data set is PC-080. In words: cytotoxicity on pancreatic cancer cells, PC-080. Format: cell-based. As to conditions: Pancreatic cancer cell. As to the method:
(§2) In addition, the IC50 values (unit is μM) of the compound SW1 and the compound SW2 on pancreatic cancer cells were measured in the experiment.

Data set [3] relates to 4T1-luc breast cancer cells. In words: syngeneic orthotopic breast tumor animal model, immune cell infiltration. The note with it: 10 mg/kg subcutaneous. Format: in vivo, BALB/c mice. The text has this: Please further refer to FIG. 7B, which is a flow chart of the ADAM9 inhibitor used in the treatment of a syngeneic orthotopic breast tumor animal model. In the experiment, 4T1-luc breast cancer cells (5×10^4) were transplanted into the breast fat pads of BALB/c mice to establish the syngeneic orthotopic breast tumor animal model. The IVIS imaging system is used for detection, and the tumor size is represented by the luminous flux of the IVIS image. After tumor images were detected on Day 15, the ADAM9 inhibitor (the compound SW1, 10 mg/kg) was pretreated by subcutaneous injection on Day 16, Day 18, and Day 20. After the tumor was surgically removed on Day 21, the ADAM9 inhibitor (the compound SW1, 10 mg/kg) was continuously treated on Day 23, Day 25, Day 27, Day 29 and Day 31. The surgically resected syngeneic orthotopic breast tumor animal model tumors were stained by immunohistochemistry. In the experiment, a control group was injected with DMSO as a control for the treatment of the ADAM9 inhibitor. Please further refer to FIGS. 8A and 8B, which show the analysis results of the effect of the ADAM9 inhibitor on immune cell infiltration.

The test system of data set [4] is human esophageal cancer cells CE146T. In words: cytokine RNA expression by RT-qPCR, CE146T. The format is cell-based. The note with it: 5 μM, 24 hours. As to the method:
(§3) We further analyzed whether the treatment of the ADAM9 inhibitor can stimulate tumor cells to secrete cytokines to activate the anti-tumor immunity of the ADAM9 inhibitor. In the experiment, human colon cancer cells SW620 and human pancreatic cancer cells PANC-1 were treated with 12.5 μM of the compound SW1, and human esophageal cancer cells C[…] were treated with 5 μM of the compound SW1. After 24 hours, the cells were collected and the RNA expression levels of CXCL10, CXCL11, CXC3CL1 and IFNB were detected by RT-qPCR. CXCL10, CXCL11 and […] are cytokines that promote the immune response of CD8^+ T cells, and IFNB is a cytokine with anti-cancer effects. Please refer to FIGS. 10A, 10B and 10C, which show the analysis results of the ADAM9 inhibitor stimulated tumor cells to secrete cytokines.
(Quantitative PCR measures a nucleic acid by following its amplification.)

The test system of the next data set is Su86-86-GFP-Luc. In words: cytotoxicity on pancreatic cancer cells, Su86-86-GFP-Luc. The format is cell-based. As to conditions: Pancreatic cancer cell. As to the method: as §2
The next data set has as its system HPAC-GFP-Luc. In words: cytotoxicity on pancreatic cancer cells, HPAC-GFP-Luc. Format: cell-based. The note with it: Pancreatic cancer cell. As to the method:
as §2

The next data set relates to Panc-1. In words: cytotoxicity on pancreatic cancer cells, Panc-1. Format: cell-based. The note with it: Homo sapiens. As to the method: as §2
The subject of data set [5] is human colon cancer cells SW620. In words: cytokine RNA expression by RT-qPCR, SW620. The format is cell-based. The note with it: 12.5 μM, 24 hours. As to the method:
as §3

The next data set deals with TC1-WT lung cancer cells. In words: subcutaneous lung tumor mouse model. As to conditions: 10 mg/kg subcutaneous injection once a day, Day 15 to Day 24, vs DMSO control. The format is in vivo, C57BL/6 mice. As to the method:
In order to further evaluate whether the treatment of ADAM9 inhibitors will give the same results as the ADAM9 gene knockout, TC1-WT lung cancer cells were injected subcutaneously into C57BL/6 mice with normal immunity to establish a subcutaneous lung tumor mouse model, and the ADAM9 inhibitor (the compound SW1, 10 mg/kg) was treated by subcutaneous injection. From Day 15 to Day 24, the compound SW1 was injected once a day for […]. The tumor volume was observed on Day 12, Day 20 and Day 27, respectively. […] The control group was injected with DMSO as a control for the treatment of the ADAM9 inhibitor.

Data set [6] deals with human pancreatic cancer cells PANC-1. In words: cytokine RNA expression by RT-qPCR, PANC-1. The format is cell-based. As to conditions: 12.5 μM, 24 hours. As to the method: as §3
For a further data set, the system named is PE10 WBC. In words: cytotoxicity assay in PE10 WBC. On the set-up: key to effect of inhibiting tumor cell growth: “+” represents that the compound has the effect of inhibiting tumor cell growth. Format: cell-based.
The subject of data set [7] is lung cancer cells (Bm7brmx2). In words: cytotoxicity assay in Bm7brmx2 cells. The format is cell-based. On the set-up: key to effect of inhibiting tumor cell growth: “+” represents that the compound has the effect of inhibiting tumor cell growth. The essentials: as §1
A further data set deals with MiaPaCa. In words: cytotoxicity on pancreatic cancer cells, MiaPaCa. Format: cell-based. As to conditions: Homo sapiens, MIA PaCa-2. As to the method:
as §2

Usually IC50 stands for the concentration needed to halve the response being measured. For `O=C1c2ccccc2C(=O)N1CCc1csc(Nc2nc(CCN3C(=O)c4ccccc4C3=O)cs2)n1` [SW1], the IC50 in data set [1] stood at 4.5 µM; with lung cancer cells (TC1), 80.4 µM; with PC-080, 446 µM; in the data set on Su86-86-GFP-Luc, 59.2 µM; with HPAC-GFP-Luc it was 126 µM; with Panc-1, 424 µM. Besides, the results for the half-inhibitory concentration (IC50) (in the data set on PE10 WBC; in [7]) were 14500 µM and 71.6 µM, respectively. Also, the “effect of inhibiting tumor cell growth” value (in [1]; with lung cancer cells (TC1); with PE10 WBC; in data set [7]) was “+” in each case. In addition, in data set [2], the “ratio of CD8+ T cells to regulatory T cells (TReg) in tumors” value is “increased significantly”. Also, the “tumor cell cytotoxicity compared with the core structure compound 6X-0310” value in the data set on Bm7 lung cancer cells is recorded as “stronger tumor cell cytotoxicity”. Further, the “number of infiltrating neutrophils” value in data set [3] (4T1 primary breast tumors and lung metastatic breast tumors) is “greatly reduced”. For the same compound, the “number of infiltrating T cells” value in data set [3] (primary 4T1 breast tumors and lung metastatic breast tumors) is given as “increased”. For the same compound, the “RNA expression levels of CXCL10, CXCL11, CXC3CL1 and IFNB” value is “increase the expressions of CXCL10, CXCL11, CXC3CL1 and IFNB” in data set [4]; “increase the expressions of CXCL10, CXCL11, CXC3CL1 and IFNB” in data set [5]; “increase the expressions of CXCL10, CXCL11, CXC3CL1 and IFNB” in data set [6]. Moreover, in the data set with TC1-WT lung cancer cells, the “tumor growth (tumor volume)” value is reported as “reduces tumor growth”.
`O=C(Nc1nc(CCN2C(=O)c3ccccc3C2=O)cs1)c1cc2ccccc2s1` [SW2]: the IC50 is 7.55 µM in data set [1]; 64.2 µM in the data set on lung cancer cells (TC1); 89.6 µM in the data set on PC-080; 66.8 µM in the data set with Su86-86-GFP-Luc; 29.3 µM in the data set on HPAC-GFP-Luc; 34.2 µM with Panc-1. In addition, the IC50 in the data set on MiaPaCa is 8.5 µM; with PE10 WBC, 76.5 µM; in data set [7], 52.7 µM. The “effect of inhibiting tumor cell growth” value (in [1]; with lung cancer cells (TC1); in the data set on PE10 WBC; in data set [7]) was “+” in each case. Also, the “tumor cell cytotoxicity compared with the core structure compound 6X-0310” value with Bm7 lung cancer cells is on record as “stronger tumor cell cytotoxicity”.
